According to US20090062294A1, “HETEROARYL-SUBSTITUTED UREA MODULATORS OF FATTY ACID AMIDE HYDROLASE” (priority 2007, published 2009):
Where a name gives a salt, the structure may show the parent alone.

Assays:
FAAH = target: T1, FAAH (Homo sapiens, UniProt O00519); test: Assay Method 1: FAAH assay, 3H-anandamide hydrolysis in homogenate of T84 cells or SK-N-MC cells transfected with human FAAH; type: biochemical; conditions: average of results, > = solubility limit or highest concentration tested
T1 sequence (O00519 1-579): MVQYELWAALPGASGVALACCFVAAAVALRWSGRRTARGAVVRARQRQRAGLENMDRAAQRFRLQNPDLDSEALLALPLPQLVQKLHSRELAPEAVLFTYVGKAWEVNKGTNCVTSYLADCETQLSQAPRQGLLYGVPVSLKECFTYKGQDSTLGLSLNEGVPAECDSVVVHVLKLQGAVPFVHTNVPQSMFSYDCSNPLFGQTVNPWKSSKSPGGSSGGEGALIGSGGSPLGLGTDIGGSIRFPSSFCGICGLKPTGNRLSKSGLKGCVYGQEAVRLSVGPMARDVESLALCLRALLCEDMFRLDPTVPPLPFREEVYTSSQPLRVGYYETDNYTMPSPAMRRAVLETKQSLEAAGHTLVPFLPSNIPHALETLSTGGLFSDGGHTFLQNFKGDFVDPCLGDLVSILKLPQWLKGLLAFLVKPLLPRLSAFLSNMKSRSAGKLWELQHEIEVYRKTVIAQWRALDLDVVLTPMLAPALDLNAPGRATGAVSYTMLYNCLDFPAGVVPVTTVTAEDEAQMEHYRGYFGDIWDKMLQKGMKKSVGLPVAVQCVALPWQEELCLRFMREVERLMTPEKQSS
Summary of the method: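 Hydrolysis of ^3H-anandamide (80 nM final, added last) was measured over 1 h at rt, using test compound with homogenate of T84 cells or human FAAH-transfected SK-N-MC cells. The homogenization buffer was 125 mM Tris, 1 mM EDTA, 0.02% Triton X-100, pH 9. Unbound labelled ethanolamine was passed through charcoal filters and scintillation-counted.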

rat FAAH = target: T2, rat FAAH (Rattus norvegicus, UniProt P97612); test: Assay Method 2: FAAH assay, 3H-anandamide hydrolysis in homogenate of SK-N-MC cells transfected with rat FAAH; type: biochemical; conditions: average of results, > = solubility limit or highest concentration tested
T2 sequence (P97612 1-579): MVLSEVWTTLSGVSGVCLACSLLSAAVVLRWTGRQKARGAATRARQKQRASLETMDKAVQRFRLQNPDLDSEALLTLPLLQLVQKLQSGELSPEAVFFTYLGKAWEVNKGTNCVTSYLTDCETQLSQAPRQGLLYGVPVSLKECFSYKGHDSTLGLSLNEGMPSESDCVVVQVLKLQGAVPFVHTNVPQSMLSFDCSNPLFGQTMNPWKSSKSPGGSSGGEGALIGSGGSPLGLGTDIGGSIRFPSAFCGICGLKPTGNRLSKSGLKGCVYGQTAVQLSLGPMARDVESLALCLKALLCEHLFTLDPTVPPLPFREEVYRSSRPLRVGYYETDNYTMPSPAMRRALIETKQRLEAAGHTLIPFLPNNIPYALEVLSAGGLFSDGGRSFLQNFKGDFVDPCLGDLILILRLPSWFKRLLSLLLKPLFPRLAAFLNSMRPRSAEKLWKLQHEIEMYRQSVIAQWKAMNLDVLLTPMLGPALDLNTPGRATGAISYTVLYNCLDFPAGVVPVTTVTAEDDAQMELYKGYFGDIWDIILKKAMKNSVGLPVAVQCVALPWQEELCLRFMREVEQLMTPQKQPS
Summary of the method: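 Read-out is scintillation counting of [3H]-ethanolamine passing through activated charcoal, after 1 h at rt with 80 nM final [3H]-AEA. Enzyme source: lysate of G418-selected SK-N-MC clones expressing rat FAAH, homogenized in Tris/EDTA/glycerol/0.02% Triton buffer, pH 9.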

In the case of `Cc1cc(NC(=O)N2CCN(Cc3cccc(Oc4ccc(Cl)cc4)c3)CC2)n[nH]1` [Example 194, 4-[3-(4-Chlorophenoxy)benzyl]-N-(5-methyl-1H-pyrazol-3-yl)piperazine-1-carboxamide], the IC50 (FAAH) is reported as 0.22 µM and the IC50 (rat FAAH) is reported as 4 µM.
Work on `O=C(Nc1nn[nH]n1)N1CCN(Cc2cccc(Oc3ccc4ccccc4c3)c2)CC1` [Example 166, 4-[3-(Naphthalen-2-yloxy)benzyl]-N-1H-tetrazol-5-ylpiperazine-1-carboxamide] yielded an IC50 (FAAH) of 0.013 µM and an IC50 (rat FAAH) of 0.007 µM.
Compound `O=C(Nc1noc2ccccc12)N1CCN(Cc2cccc(Oc3cnccn3)c2)CC1` [Example 97, N-1,2-Benzisoxazol-3-yl-4-[3-(pyrazin-2-yloxy)benzyl]piperazine-1-carboxamide] has an IC50 (FAAH) of 0.27 µM and an IC50 (rat FAAH) of 5 µM.
With `O=C(Nc1noc2ccccc12)N1CCC(Cc2cccc(C(F)(F)F)c2)CC1` [Example 27, 4-(3-Trifluoromethyl-benzyl)-piperidine-1-carboxylic acid benzo[d]isoxazol-3-ylamide] the IC50 (FAAH) was 0.077 µM and the IC50 (rat FAAH) was 0.047 µM.
`O=C(Nc1noc2ccccc12)N1CCN(Cc2cccc(Oc3ccc(C(F)(F)F)c(Cl)c3)c2)CC1` [Example 204, 4-[3-(3-Chloro-4-trifluoromethyl-phenoxy)-benzyl]-piperazine-1-carboxylic acid benzo[d]isoxazol-3-ylamide trifluoroacetic acid salt] gave an IC50 (FAAH) of 0.014 µM and an IC50 (rat FAAH) of 0.032 µM.
Compound `O=C(Nc1cnccn1)N1CCN(Cc2ccc(Cl)c(Cl)c2)CC1` [Example 220, 4-(3,4-Dichlorobenzyl)-N-pyrazin-2-ylpiperazine-1-carboxamide] has an IC50 (FAAH) of 0.32 µM and an IC50 (rat FAAH) of 0.43 µM.
`O=C(Nc1nnn[nH]1)N1CCC(Cc2ccc3ccccc3c2)CC1` [Example 13, 4-Naphthalen-2-ylmethyl-piperidine-1-carboxylic acid (1H-tetrazol-5-yl)-amide] gave an IC50 (FAAH) of 0.005 µM and an IC50 (rat FAAH) of 0.087 µM.
In the case of `O=C(Nc1nn[nH]n1)N1CCN(Cc2cccc(Oc3ccccc3)c2)CC1` [Example 181, 4-(3-Phenoxy-benzyl)-piperazine-1-carboxylic acid (2H-tetrazol-5-yl)-amide], the IC50 (FAAH) is reported as 5 µM and the IC50 (rat FAAH) is reported as 1.6 µM.
`O=C(Nc1nn[nH]n1)N1CCN(Cc2ccc3cc[nH]c3c2)CC1` [Example 178, 4-(1H-Indol-6-ylmethyl)-piperazine-1-carboxylic acid (2H-tetrazol-5-yl)-amide] showed an IC50 (FAAH) of over 10 µM and an IC50 (rat FAAH) of over 10 µM.
Work on `O=C(Nc1nn[nH]n1)N1CCN(Cc2cccc(OCc3ccccc3)c2)CC1` [Example 179, 4-(3-Benzyloxy-benzyl)-piperazine-1-carboxylic acid (2H-tetrazol-5-yl)-amide] yielded an IC50 (FAAH) of 1.6 µM and an IC50 (rat FAAH) of 1.2 µM.
With `O=C(Nc1ccon1)N1CCN(Cc2cccc(Oc3ccc4c(c3)OC(F)(F)O4)c2)CC1` [Example 141, 4-{3-[(2,2-Difluoro-1,3-benzodioxol-5-yl)oxy]benzyl}-N-isoxazol-3-ylpiperazine-1-carboxamide] the IC50 (FAAH) was 0.05 µM and the IC50 (rat FAAH) was 0.87 µM.
In the case of `O=C(Nc1cccc2nonc12)N1CCN(Cc2cccc(C#Cc3ccccc3)c2)CC1` [Example 203, N-2,1,3-Benzoxadiazol-4-yl-4-{[3-(phenylethynyl)phenyl]methyl}-piperazine-1-carboxamide], the IC50 (FAAH) is reported as 0.21 µM and the IC50 (rat FAAH) is reported as 0.35 µM.
Compound `O=C(Nc1noc2ccccc12)N1CCN(Cc2cccc(Oc3ccc(Cl)c(Cl)c3)c2)CC1` [Example 50, 4-[3-(3,4-Dichloro-phenoxy)-benzyl]-piperazine-1-carboxylic acid benzo[d]isoxazol-3-ylamide trifluoroacetic acid salt] has an IC50 (FAAH) of 0.042 µM and an IC50 (rat FAAH) of 0.018 µM.
For `N#Cc1ccc(Oc2cccc(CN3CCN(C(=O)Nc4ccon4)CC3)c2)cc1C(F)(F)F` [Example 163, 4-{3-[4-Cyano-3-(trifluoromethyl)phenoxy]benzyl}-N-isoxazol-3-ylpiperazine-1-carboxamide], the IC50 (FAAH) was 1 µM and the IC50 (rat FAAH) was over 10 µM.
In the case of `O=C(Nc1cc(-c2ccccc2)[nH]n1)N1CCN(Cc2cccc(Oc3ccc(Cl)cc3)c2)CC1` [Example 244, 4-[3-(4-Chlorophenoxy)benzyl]-N-(5-phenyl-1H-pyrazol-3-yl)piperazine-1-carboxamide trifluoroacetate salt], the IC50 (FAAH) is reported as 1.4 µM and the IC50 (rat FAAH) is reported as 7 µM.
For `O=C(Nc1noc2ccccc12)N1CCN(Cc2ccc(Cl)c(Cl)c2)CC1` [Example 111, N-1,2-Benzisoxazol-3-yl-4-(3,4-dichlorobenzyl)piperazine-1-carboxamide], the IC50 (FAAH) was 0.035 µM and the IC50 (rat FAAH) was 0.04 µM.
`O=C(Nc1noc2ccccc12)N1CCN(Cc2ccc3nc[nH]c3c2)CC1` [Example 100, 4-(1H-Benzimidazol-6-ylmethyl)-N-1,2-benzisoxazol-3-ylpiperazine-1-carboxamide] was tested, and the IC50 (FAAH) was over 10 µM and the IC50 (rat FAAH) was over 10 µM.
With `O=C(Nc1ccon1)N1CCN(Cc2ccc3c(c2)OCO3)CC1` [Example 143, 4-(1,3-Benzodioxol-5-ylmethyl)-N-isoxazol-3-ylpiperazine-1-carboxamide] the IC50 (FAAH) was over 10 µM and the IC50 (rat FAAH) was over 10 µM.
For `O=C(Nc1nnn[nH]1)N1CCN(Cc2cnc3ccccc3c2)CC1` [Example 165, 4-(Quinolin-3-ylmethyl)-N-1H-tetrazol-5-ylpiperazine-1-carboxamide], the IC50 (FAAH) was 8 µM and the IC50 (rat FAAH) was 6 µM.
`O=C(Nc1nn[nH]n1)N1CCN(Cc2cccc(Oc3ccccc3Cl)c2)CC1` [Example 190, 4-[3-(2-Chlorophenoxy)benzyl]-N-2H-tetrazol-5-ylpiperazine-1-carboxamide] gave an IC50 (FAAH) of 3 µM and an IC50 (rat FAAH) of 3.7 µM.
Compound `O=C(Nc1cccnn1)N1CCN(Cc2ccc3c(c2)OC(F)(F)O3)CC1` [Example 196, 4-[(2,2-Difluoro-1,3-benzodioxol-5-yl)methyl]-N-pyridazin-3-ylpiperazine-1-carboxamide] has an IC50 (FAAH) of 6 µM and an IC50 (rat FAAH) of 1.6 µM.
With `O=C(Nc1ccon1)N1CCN(Cc2cccc(Oc3ccc4ncccc4c3)c2)CC1` [Example 162, N-Isoxazol-3-yl-4-[3-(quinolin-6-yloxy)benzyl]piperazine-1-carboxamide] the IC50 (FAAH) was 0.24 µM and the IC50 (rat FAAH) was 6.4 µM.
In the case of `O=C(Nc1noc2ccccc12)N1CCN(Cc2ccc3[nH]ccc3c2)CC1` [Example 118, N-1,2-Benzisoxazol-3-yl-4-(1H-indol-5-ylmethyl)piperazine-1-carboxamide], the IC50 (FAAH) is reported as 1.8 µM and the IC50 (rat FAAH) is reported as 8 µM.
`O=C(Nc1ccc(Cl)nn1)N1CCN(Cc2cccc(Oc3ccc(Cl)cc3)c2)CC1` [Example 42, 4-[3-(4-Chloro-phenoxy)-benzyl]-piperazine-1-carboxylic acid (6-chloro-pyridazin-3-yl)-amide trifluoroacetic acid salt] was tested, and the IC50 (FAAH) was 0.311 µM and the IC50 (rat FAAH) was 0.018 µM.
Work on `O=C(Nc1nnn[nH]1)N1CCN(Cc2ccc3ccccc3c2)CC1` [Example 176, 4-(Naphthalen-2-ylmethyl)-N-1H-tetrazol-5-ylpiperazine-1-carboxamide] yielded an IC50 (FAAH) of 2 µM and an IC50 (rat FAAH) of 0.45 µM.
With `O=C(Nc1cnccn1)N1CCC(Cc2ccc3ccccc3c2)CC1` [Example 10, 4-Naphthalen-2-ylmethyl-piperidine-1-carboxylic acid pyrazin-2-ylamide trifluoroacetic acid salt] the IC50 (FAAH) was 0.244 µM and the IC50 (rat FAAH) was 0.036 µM.
Work on `O=C(Nc1noc2ccccc12)N1CCN(Cc2cccc(Oc3ccc(F)cc3)c2)CC1` [Example 208, 4-[3-(4-Fluoro-phenoxy)-benzyl]-piperazine-1-carboxylic acid benzo[d]isoxazol-3-ylamide] yielded an IC50 (FAAH) of 0.021 µM and an IC50 (rat FAAH) of 0.017 µM.
For `N#Cc1ccc(Oc2cccc(CN3CCN(C(=O)Nc4noc5ccccc45)CC3)c2)cc1C(F)(F)F` [Example 128, N-1,2-Benzisoxazol-3-yl-4-{3-[4-cyano-3-(trifluoromethyl)phenoxy]benzyl}piperazine-1-carboxamide], the IC50 (FAAH) was 0.23 µM and the IC50 (rat FAAH) was 0.4 µM.
Compound `O=C(Nc1cnccn1)N1CCN(Cc2ccc3[nH]ccc3c2)CC1` [Example 216, 4-(1H-Indol-5-ylmethyl)-N-pyrazin-2-ylpiperazine-1-carboxamide] has an IC50 (FAAH) of over 10 µM and an IC50 (rat FAAH) of over 10 µM.
